This assay has as its system A549 cells. Put plainly: confocal microscopy of ceramide and caspase 8. It counts as cell-based, human. The conditions noted are these: 300 nM, 30 minutes after treatment. The procedure:
Confocal microscopy. […] After treatment, the cells were fixed 10 minutes at room temperature with 4% PFA, washed twice with PBS, permeabilized 2 minutes at room temperature with 0.1% triton in PBS and blocked for 30 minutes with sterile 2% BSA in PBS. The staining was performed at room temperature for 2 hours (h), with mouse monoclonal anti-human ceramide (Alexis) and rabbit anti-human caspase 8 (BD Pharmingen) antibodies followed by secondary goat anti-mouse ALEXA FLUOR568™ and goat anti-rabbit ALEXA FLUOR488™ antibodies (Invitrogen). The blue DNA binding dye TOPRO-3™ (Molecular Probes) was added together with the secondary antibodies. The cells were washed three times with PBS between the different incubation steps and the incubation with the secondary fluorescently labeled antibodies was performed in the dark. All antibodies were diluted in PBS. Confocal images were recorded on a Nikon ECLIPSE C1™ confocal microscope.

Here are results for one molecule from US9045401B2, “Methods for treating or ameliorating a melanoma and killing melanoma cells” (THE REGENTS OF THE UNIVERSITY OF CALIFORNIA, priority 2007, dated 2015).

On to `CCCCC/C=C\C/C=C\C/C=C\C/C=C\CCCC(=O)O` [arachidonic acid, reference compound], for which the cell surface ceramide result is on record as “absent”.
